Measured values published in PubChem BioAssay AID624394 (The Scripps Research Institute Molecular Screening Center, 2012).

Molecular target: Photoreceptor-specific nuclear receptor (Homo sapiens) (UniProt Q9Y5X4)
Assay: concentration-response of NR2E3 activators – cell-based, luminescence, luciferase reporter, dose response (AID 624394)

Photoreceptor-specific nuclear receptor (Homo sapiens), sequence (Q9Y5X4 whole entry, looked up): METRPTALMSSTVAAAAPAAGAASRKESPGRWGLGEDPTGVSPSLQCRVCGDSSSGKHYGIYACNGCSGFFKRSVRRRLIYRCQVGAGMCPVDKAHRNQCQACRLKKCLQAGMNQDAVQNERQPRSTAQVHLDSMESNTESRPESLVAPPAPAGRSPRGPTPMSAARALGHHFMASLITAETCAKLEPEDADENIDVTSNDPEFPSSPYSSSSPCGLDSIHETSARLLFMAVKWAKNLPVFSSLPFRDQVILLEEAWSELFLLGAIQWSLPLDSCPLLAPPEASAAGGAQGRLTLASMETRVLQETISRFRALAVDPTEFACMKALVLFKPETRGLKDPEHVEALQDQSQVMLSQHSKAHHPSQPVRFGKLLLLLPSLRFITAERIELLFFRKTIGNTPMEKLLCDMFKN

CCOP(=O)(CCP(=O)(OCC)OCC)OCC.C[CH2][Sn]([Cl])([Cl])[CH2]C
IC50: 478 nM
